According to ChEMBL document CHEMBL1201862, “PubChem BioAssay data set” (2004):
The source made the active and inactive calls.

What was measured:
Troponin, cardiac muscle = Troponin, cardiac muscle (Homo sapiens, UniProt P19429+P45379+P63316); experiment: compounds desensitizing RTF to calcium – biochemical, fluorescence, cardiac regulated thin filaments, triplicate IC50, dose response (AID 504742); assay type: protein-complex assay
[1] = target: T1, Small ubiquitin-related modifier 1 (Homo sapiens, UniProt P63165); experiment: SUMO1 protein interaction blockers, potency – biochemical, fluorescence polarization, uHTS hits, dose response (AID 624382); assay type: functional; settings: read-out: IC50_Mean
T1 sequence (P63165 whole entry): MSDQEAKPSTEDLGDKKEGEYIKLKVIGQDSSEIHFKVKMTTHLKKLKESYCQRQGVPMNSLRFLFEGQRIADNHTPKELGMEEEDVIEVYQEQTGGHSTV

[2] = target: T2, Long-chain-fatty-acid--AMP ligase FadD28 (Mycobacterium tuberculosis, UniProt P9WQ59); experiment: Fluorescence polarization aasay to screen for inhibitors that compete for the binding of FadD28 to a bisubstrate Measured in Biochemical System Using Plate Reader - 2147-01_Inhibitor_Dose_CherryPick_Activity.; assay type: functional, Mycobacterium tuberculosis H37Rv
T2 sequence (P9WQ59 whole entry): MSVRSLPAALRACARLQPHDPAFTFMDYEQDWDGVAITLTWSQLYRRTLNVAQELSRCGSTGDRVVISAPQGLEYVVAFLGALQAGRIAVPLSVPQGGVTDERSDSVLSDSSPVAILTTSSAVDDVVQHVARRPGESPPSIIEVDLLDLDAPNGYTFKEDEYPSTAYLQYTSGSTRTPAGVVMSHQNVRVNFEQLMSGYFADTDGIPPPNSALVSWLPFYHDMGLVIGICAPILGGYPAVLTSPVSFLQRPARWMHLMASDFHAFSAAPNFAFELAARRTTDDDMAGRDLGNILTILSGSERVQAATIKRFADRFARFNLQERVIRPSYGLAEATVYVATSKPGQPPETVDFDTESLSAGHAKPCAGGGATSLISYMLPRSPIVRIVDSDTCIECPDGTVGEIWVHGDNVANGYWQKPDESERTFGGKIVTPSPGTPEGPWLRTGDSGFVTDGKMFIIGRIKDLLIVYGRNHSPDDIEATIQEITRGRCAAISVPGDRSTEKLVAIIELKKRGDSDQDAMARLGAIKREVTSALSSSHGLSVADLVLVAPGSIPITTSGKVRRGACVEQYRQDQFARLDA

[3] = target: T1, Small ubiquitin-related modifier 1; experiment: SUMO1 protein-protein binding blockers, potency – biochemical, FRET, dose response (AID 624383); assay type: functional; settings: read-out: IC50_Mean
[4] = target: T3, Rac GTPase-activating protein 1 (Homo sapiens, UniProt Q9H0H5); experiment: blockers of MgcRacGAP-driven Rac1 GTP hydrolysis – biochemical, ADP Hunter fluorescence, primary and confirmatory, confirmation (AID 624330); assay type: functional
T3 sequence (Q9H0H5 whole entry): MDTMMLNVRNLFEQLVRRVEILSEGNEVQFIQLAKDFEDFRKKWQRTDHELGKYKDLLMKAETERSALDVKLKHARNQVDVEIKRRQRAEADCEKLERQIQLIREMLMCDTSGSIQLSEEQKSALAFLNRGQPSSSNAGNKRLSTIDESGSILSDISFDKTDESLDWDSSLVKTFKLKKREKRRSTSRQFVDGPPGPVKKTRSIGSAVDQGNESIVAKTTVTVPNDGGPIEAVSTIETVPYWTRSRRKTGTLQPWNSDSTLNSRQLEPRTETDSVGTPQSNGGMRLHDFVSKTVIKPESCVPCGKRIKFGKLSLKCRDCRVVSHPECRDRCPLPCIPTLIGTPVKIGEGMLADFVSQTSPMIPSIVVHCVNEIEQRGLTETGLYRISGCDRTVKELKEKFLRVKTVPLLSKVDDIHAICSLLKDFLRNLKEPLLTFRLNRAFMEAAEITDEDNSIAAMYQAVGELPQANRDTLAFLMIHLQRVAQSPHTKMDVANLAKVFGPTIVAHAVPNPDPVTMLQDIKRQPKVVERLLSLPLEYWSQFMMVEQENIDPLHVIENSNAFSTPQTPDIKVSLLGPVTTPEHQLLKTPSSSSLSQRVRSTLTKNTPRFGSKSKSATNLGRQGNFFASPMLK

[5] = target: T4, 1-phosphatidylinositol 4,5-bisphosphate phosphodiesterase gamma-1 (Homo sapiens, UniProt P19174); experiment: Counterscreen for inhibitors of phospholipase C isozymes (PLC-B3): Fluorescence-based biochemical high throughput dose response assay to identify inhibitors of phospholipase C isozymes (PLC-gamma1).
T4 sequence (P19174 whole entry): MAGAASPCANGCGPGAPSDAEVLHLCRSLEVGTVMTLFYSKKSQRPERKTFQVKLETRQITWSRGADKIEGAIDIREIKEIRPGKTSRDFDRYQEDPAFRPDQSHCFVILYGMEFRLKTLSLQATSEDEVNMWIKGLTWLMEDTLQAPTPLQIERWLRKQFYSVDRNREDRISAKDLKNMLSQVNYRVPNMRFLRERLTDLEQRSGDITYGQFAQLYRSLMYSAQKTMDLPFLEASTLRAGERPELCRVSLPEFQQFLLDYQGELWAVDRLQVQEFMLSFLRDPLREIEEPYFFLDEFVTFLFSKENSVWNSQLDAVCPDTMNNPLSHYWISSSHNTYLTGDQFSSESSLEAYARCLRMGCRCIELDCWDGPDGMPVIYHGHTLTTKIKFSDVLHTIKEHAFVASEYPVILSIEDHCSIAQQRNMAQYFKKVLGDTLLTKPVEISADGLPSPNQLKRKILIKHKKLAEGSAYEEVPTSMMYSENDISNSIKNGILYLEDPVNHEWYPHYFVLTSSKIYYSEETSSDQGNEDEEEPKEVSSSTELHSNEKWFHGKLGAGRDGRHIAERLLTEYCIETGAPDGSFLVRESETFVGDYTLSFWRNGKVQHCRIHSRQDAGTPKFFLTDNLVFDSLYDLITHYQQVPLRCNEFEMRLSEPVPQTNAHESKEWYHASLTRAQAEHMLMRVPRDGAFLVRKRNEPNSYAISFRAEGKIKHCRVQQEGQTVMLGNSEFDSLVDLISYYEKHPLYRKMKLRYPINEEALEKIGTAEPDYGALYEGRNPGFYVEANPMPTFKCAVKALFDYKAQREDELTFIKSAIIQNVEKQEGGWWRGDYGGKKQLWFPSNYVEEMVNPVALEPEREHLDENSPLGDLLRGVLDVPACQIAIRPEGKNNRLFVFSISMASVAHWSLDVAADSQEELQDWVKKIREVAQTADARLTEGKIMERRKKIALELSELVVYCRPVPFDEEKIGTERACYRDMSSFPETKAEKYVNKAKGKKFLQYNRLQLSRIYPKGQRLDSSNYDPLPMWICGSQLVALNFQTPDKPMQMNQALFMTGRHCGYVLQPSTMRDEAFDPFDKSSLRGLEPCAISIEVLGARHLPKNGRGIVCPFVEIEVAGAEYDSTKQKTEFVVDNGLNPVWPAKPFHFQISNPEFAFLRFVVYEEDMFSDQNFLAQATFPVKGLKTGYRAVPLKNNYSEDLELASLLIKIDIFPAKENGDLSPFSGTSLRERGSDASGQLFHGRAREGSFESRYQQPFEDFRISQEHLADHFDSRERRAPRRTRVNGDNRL

[6] = target: T5, 1-phosphatidylinositol 4,5-bisphosphate phosphodiesterase beta-3 (Homo sapiens, UniProt Q01970); experiment: Fluorescence-based biochemical high throughput dose response assay to identify inhibitors of phospholipase C isozymes (PLC-B3).
T5 sequence (Q01970 whole entry): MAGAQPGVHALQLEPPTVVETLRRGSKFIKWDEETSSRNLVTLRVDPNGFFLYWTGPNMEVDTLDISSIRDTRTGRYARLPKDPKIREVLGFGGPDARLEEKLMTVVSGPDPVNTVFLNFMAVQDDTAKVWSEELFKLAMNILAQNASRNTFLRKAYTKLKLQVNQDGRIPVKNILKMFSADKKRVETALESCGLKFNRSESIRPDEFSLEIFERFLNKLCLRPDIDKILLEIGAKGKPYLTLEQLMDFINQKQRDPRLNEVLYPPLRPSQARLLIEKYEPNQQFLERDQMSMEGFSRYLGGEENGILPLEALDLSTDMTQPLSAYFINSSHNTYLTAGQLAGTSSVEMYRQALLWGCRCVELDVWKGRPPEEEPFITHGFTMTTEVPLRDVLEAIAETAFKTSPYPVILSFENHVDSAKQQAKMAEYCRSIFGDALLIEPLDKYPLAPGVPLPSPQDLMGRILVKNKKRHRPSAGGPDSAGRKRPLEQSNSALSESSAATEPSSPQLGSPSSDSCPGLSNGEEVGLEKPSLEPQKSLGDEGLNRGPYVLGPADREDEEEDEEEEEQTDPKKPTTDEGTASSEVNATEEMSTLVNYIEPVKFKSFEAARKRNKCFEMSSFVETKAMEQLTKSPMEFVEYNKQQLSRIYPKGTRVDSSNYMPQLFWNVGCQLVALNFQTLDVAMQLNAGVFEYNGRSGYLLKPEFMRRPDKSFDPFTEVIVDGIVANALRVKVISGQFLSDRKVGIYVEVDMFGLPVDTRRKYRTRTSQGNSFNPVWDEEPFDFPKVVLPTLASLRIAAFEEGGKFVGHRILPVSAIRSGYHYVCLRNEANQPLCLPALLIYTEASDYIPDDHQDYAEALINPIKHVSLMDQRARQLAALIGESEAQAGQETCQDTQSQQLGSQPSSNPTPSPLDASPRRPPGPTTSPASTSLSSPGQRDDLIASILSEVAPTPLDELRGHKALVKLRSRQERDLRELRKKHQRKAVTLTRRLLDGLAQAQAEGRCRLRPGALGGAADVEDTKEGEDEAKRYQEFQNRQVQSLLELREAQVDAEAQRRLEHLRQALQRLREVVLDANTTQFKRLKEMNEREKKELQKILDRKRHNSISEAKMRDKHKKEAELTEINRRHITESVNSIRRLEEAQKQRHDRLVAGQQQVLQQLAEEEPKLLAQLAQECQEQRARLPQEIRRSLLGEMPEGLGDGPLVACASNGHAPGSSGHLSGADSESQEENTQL

Cytochrome P450 2D6 = Cytochrome P450 2D6 (Homo sapiens, UniProt P10635);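 note: CYP2D6 member of a cytochrome P450 panel assay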
Chain of Cytochrome P450 2D6 (P10635 whole entry): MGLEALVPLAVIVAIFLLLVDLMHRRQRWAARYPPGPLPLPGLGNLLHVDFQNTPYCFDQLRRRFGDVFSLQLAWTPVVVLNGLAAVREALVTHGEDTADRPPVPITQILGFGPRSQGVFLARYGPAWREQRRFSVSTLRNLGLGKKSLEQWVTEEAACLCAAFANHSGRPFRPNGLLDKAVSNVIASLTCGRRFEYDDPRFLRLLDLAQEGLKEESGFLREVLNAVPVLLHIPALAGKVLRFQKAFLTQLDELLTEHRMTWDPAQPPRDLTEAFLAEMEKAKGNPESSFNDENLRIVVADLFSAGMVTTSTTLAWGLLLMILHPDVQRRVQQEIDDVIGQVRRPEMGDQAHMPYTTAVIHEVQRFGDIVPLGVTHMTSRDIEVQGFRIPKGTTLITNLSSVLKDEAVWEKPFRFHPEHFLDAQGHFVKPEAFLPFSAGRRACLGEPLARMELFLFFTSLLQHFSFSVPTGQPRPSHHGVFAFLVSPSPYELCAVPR

[7] = A549 cell cytotoxicity, dose response, cytotoxicity control, plate reader, cherry-pick, antagonist series (AID 743412); assay type: functional, cell-based
[8] = toxicity toward HepG2 liver cells – cell-based, plate reader, cherry-pick, antagonist series, cytotoxicity control, dose response (AID 743416); assay type: functional
[9] = blockers of bursicon-stimulated LGR2 cAMP reporter – cell-based, HEK293, CRE-luciferase reporter, cherry pick, set 2, dose response (AID 743343); assay type: functional;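 note: transfected cells were stimulated with diluted bursicon conditioned medium after compound addition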
[10] = blockade of melanocortin 4 receptor signaling – cell-based, plate reader, cherry pick, counter-screen for LGR2 antagonist project, dose response (AID 743444); assay type: functional;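 note: transfected HEK 293 cells stimulated with alpha-MSH peptide; potency of inhibitors of the alpha-MSH evoked signal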
[11] = target: Induced myeloid leukemia cell differentiation protein Mcl-1 (Homo sapiens, UniProt Q07820); assay type: functional
Chain of Induced myeloid leukemia cell differentiation protein Mcl-1 (Q07820 whole entry): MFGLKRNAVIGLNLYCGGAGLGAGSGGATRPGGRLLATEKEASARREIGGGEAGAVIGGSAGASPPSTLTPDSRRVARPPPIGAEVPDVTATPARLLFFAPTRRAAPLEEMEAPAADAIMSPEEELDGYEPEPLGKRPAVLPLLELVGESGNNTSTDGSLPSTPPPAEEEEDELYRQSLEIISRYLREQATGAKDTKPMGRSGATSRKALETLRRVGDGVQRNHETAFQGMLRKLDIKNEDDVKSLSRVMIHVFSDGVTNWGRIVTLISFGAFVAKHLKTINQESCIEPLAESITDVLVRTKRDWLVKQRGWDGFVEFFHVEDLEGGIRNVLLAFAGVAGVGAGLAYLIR

[12] = target: T6, Mannose-6-phosphate isomerase (Homo sapiens, UniProt P34949); experiment: MPI inhibition at elevated mannose 6-phosphate – biochemical, fluorescence intensity, high mannose 6-phosphate, primary screen (AID 1220)
T6 sequence (P34949 whole entry): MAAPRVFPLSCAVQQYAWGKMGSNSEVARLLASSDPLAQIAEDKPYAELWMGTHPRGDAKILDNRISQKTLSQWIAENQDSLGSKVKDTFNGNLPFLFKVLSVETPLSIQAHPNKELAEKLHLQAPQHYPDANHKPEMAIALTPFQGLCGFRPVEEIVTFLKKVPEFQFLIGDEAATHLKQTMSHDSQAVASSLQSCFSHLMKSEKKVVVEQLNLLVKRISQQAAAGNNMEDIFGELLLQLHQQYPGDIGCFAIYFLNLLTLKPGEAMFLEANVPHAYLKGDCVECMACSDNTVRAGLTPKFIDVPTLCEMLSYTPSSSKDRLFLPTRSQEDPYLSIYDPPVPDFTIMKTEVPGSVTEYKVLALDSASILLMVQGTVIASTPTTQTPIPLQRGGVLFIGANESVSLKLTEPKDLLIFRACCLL

Caspase-6 = target: T7, Caspase-6 (Homo sapiens, UniProt P55212); experiment: inhibition of CASP6 peptide cleavage – biochemical, VEID-R110 fluorescence, cherry-pick, dose response (AID 720632)
T7 sequence (P55212 whole entry): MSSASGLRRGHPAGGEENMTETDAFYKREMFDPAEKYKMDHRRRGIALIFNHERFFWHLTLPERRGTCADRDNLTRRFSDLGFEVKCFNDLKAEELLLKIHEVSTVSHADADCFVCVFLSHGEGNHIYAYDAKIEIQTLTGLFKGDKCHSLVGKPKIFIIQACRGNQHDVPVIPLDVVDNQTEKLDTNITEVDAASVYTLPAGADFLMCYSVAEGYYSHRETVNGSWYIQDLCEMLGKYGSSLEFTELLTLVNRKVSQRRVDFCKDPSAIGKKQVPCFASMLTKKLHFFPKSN

cells = assay type: functional
[13] = general mammalian cell viability loss – inhibitor set, cherry-pick, set 2, cytotoxicity control for miR-122 modulator project, dose response (AID 720697); assay type: functional, cell-based

## O=C(O)c1cc(O)c2c(c1)[C@@H]([C@H]1c3cc(C(=O)O)cc(O)c3C(=O)c3c(O[C@@H]4O[C@H](CO)[C@@H](O)[C@H](O)[C@H]4O)cccc31)c1cccc(OC3O[C@H](CO)[C@@H](O)[C@H](O)[C@H]3O)c1C2=O (some centres undefined)
Troponin, cardiac muscle
  IC50: 1.82 µM (active)
[1]
  IC50: 30.6 µM (inactive)
[2]
  AC50: > 100 µM (inactive)
[3]
  IC50: 1.06 µM (active)
[4]
  IC50: 12 µM (active)

## O=C(Cc1cccs1)N1CCC(c2nc3c(nnn3Cc3ccccc3Cl)c(=O)[nH]2)CC1
[5]
  IC50: > 122 µM (inactive)
[6]
  IC50: > 122 µM (inactive)
Cytochrome P450 2D6
  AC50: 14.1 µM (inconclusive)

## COc1ccc(C(=O)Nc2ccc3ncccc3c2)cc1
[7]
  AC50: 37.8 µM (active)
[8]
  AC50: 47 µM (active)
[9]
  AC50: 5.45 µM (active)
[10]
  AC50: 7.29 µM (active)

## COc1ccc(N2CCC(CNS(=O)(=O)c3cccc(C(F)(F)F)c3)C2)cc1 (centres undefined)
[11]
  IC50: > 54 µM (active)
[12]
  IC50: > 50 µM (not active)

## COC(=O)COc1nc(C)c2c(c1C#N)CC(C)(C)OC2
[5]
  IC50: > 123 µM (inactive)
[6]
  IC50: > 123 µM (inactive)

## O=[N+]([O-])c1cccc(NS(=O)(=O)c2ccc(-c3ccc(O)nn3)s2)c1
Caspase-6
  AC50: 40.3 µM (active)

## O=C(COc1cccc2ccccc12)Nc1nc2ccccc2[nH]1
cells
  IC50: 6.2 µM (active)
[13]
  AC50: 8.06 µM (active)
